This assay deals with collagen induced ex vivo platelet aggregation. Put plainly: Ex vivo platelet aggregation inhibition in dogs, collagen induced. The arrangement: species or system dog. The conditions noted are these: collagen plus epinephrine. How it is done:
Dogs of either sex (mixed breed of Labrador/Harrier, body weight 21-28 kg) were fasted overnight. The test compounds were administered orally in gelatine capsules or intravenously. Before administration of the test compounds and several times during 24 hours thereafter, 20 ml of blood were withdrawn from the cephalic vein into acid citrate dextrose (9+1volumes). Platelet rich plasma (PRP) was obtained by centrifugation. Platelet aggregation was measured in PRP after addition of either ADP (3-30 μmol/l) or collagen (0.3-10 μg/ml) plus epinephrine (10 μM) at 37° C. in an aggregometer (BioData). Percent of maximal aggregation before and after drug administration was compared. The percent inhibition of aggregation at the lowest concentration of the agonist which induced irreversible maximal aggregation is given. In addition, the cutaneous bleeding time was measured at the shaved inner forearm using the Simplate® 1 device at the times of blood collection. Percent prolongation of bleeding time after drug administration as compared to the predrug value is calculated.
When ethyl (S)-3-(2-( (S)-4-(4-(amino-imino-methyl) phenyl)-4-methyl-2,5-dioxoimidazolidin-1-yl)acetylamino)-3-phenylpropionate hydrogen maleate was examined the following results were obtained. Given is the percent inhibition of platelet aggregation 1 h, 4 h, 8 h and 24 h after administration of the test substance. The dose is given in mg per kg body weight. n is the number of dogs tested.

As to `CCOC(=O)C[C@H](NC(=O)CN1C(=O)N[C@@](C)(c2ccc(C(=N)N)cc2)C1=O)c1ccccc1.O=C(O)/C=C\C(=O)O` [Ethyl (S)-3-(2-((S)-4-(4-(amino-imino-methyl)phenyl)-4-methyl-2,5-dioxo-imidazolidin-1-yl)acetylamino)-3-phenylpropionate hydrogen maleate], the Inhibition of aggregation (0.5 mg/kg intravenously, n=6, after 1 h) came out at 27%; the Inhibition of aggregation (0.5 mg/kg intravenously, n=6, after 4 h) turned out to be 26%; the Inhibition of aggregation (0.5 mg/kg intravenously, n=6, after 8 h) amounted to 18%; the Inhibition of aggregation (0.5 mg/kg intravenously, n=6, after 24 h) was found to be 0%; the Inhibition of aggregation (0.5 mg/kg orally, n=6, after 1 h) was 8%; the Inhibition of aggregation (0.5 mg/kg orally, n=6, after 4 h) is 19%. The Inhibition of aggregation is, setting by setting: (0.5 mg/kg orally, n=6, after 8 h) 5%; (0.5 mg/kg orally, n=6, after 24 h) 0%; (1 mg/kg orally, n=6, after 1 h) 36%; (1 mg/kg orally, n=6, after 4 h) 67%; (1 mg/kg orally, n=6, after 8 h) 50%; (1 mg/kg orally, n=6, after 24 h) 11%. The Inhibition of aggregation by setting is: (2 mg/kg orally, n=8, after 1 h) 28%; (2 mg/kg orally, n=8, after 4 h) 65%; (2 mg/kg orally, n=8, after 8 h) 60%; (2 mg/kg orally, n=8, after 24 h) 20%.

The values are drawn from US6294562A, “Salts of ethyl 3-(2-(4-(4-amino-imino-methyl)phenyl)-4-methyl-2,5-dioxo-imidazolidin-1-yl )acetylamino)-3-phenylpropionate” (Hoechst Aktiengesellschaft, priority 1996, dated 2001).
